Among the test systems are SR leukemia; OVCAR-4 ovarian; MCF7 breast; SF-295 CNS; M14 melanoma; A549 NSCLC; HT29 colon; HL-60(TB) leukemia.
Common to all, as to test: inhibition of tumour cell growth, NCI panel, 48 h

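Cells were grown in 96-well plates and exposed to each compound for 48 hours at five concentrations; endpoints were interpolated linearly between bracketing concentrations, or set to the highest concentration if not reached. GI50 = concentration required for 50% inhibition of growth. At the TGI there is no net growth.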

Take `CCN(CC)c1ccc2[nH]c3c(C(N)=O)cc(=O)c(=O)c=3oc2c1`: the GI50 was 2.84 µM in the assay on SR leukemia; 2.03 µM in the assay on OVCAR-4 ovarian; 1.68 µM with MCF7 breast; 1.57 µM with SF-295 CNS; 1.61 µM in the assay on M14 melanoma; 1.75 µM in the assay on A549 NSCLC. The GI50 is 2.97 µM in the assay with HT29 colon and 1.66 µM in the assay with HL-60(TB) leukemia. Further, the TGI in the assay on SR leukemia was 8.74 µM; in the assay on OVCAR-4 ovarian it was 11.5 µM; in the assay with MCF7 breast, more than 100 µM; in the assay on SF-295 CNS, 6.35 µM; in the assay on M14 melanoma, 4.17 µM; in the assay on A549 NSCLC, 5.12 µM. Further, the figures for the TGI with HT29 colon and in the assay on HL-60(TB) leukemia were 12.9 µM and 5.08 µM, respectively.
In the case of `COc1c(O)cc2oc3cc(O)c(CC=C(C)C)c(O)c3c(=O)c2c1C/C=C(\C)CCC=C(C)C`, the GI50 was 5.45 µM in the assay with SR leukemia; 5.41 µM in the assay on OVCAR-4 ovarian; 6.15 µM with MCF7 breast; 4.88 µM in the assay on SF-295 CNS; 6.17 µM with M14 melanoma; 5.1 µM in the assay with A549 NSCLC. Further, the results for the GI50 in the assay with HT29 colon and with HL-60(TB) leukemia were 6.34 µM and 7.69 µM, respectively. Also, the TGI with SR leukemia is 13.2 µM; in the assay with OVCAR-4 ovarian, 9.84 µM; in the assay on MCF7 breast, 13.7 µM; in the assay on SF-295 CNS, 9.6 µM; in the assay with M14 melanoma it was 12.6 µM; in the assay with A549 NSCLC, 9.64 µM. Besides, the TGI was 12.4 µM in the assay on HT29 colon and 17.7 µM with HL-60(TB) leukemia.
Regarding `OCc1ccc(N(Cc2ccc(F)cc2)C2CCC2)cc1Cl`, the GI50 with SR leukemia was 15.3 µM; in the assay on OVCAR-4 ovarian, 0.207 µM; in the assay on MCF7 breast, 0.178 µM; in the assay on SF-295 CNS, 0.437 µM; in the assay with M14 melanoma, 15.8 µM; in the assay with A549 NSCLC, 2.04 µM. The results for the GI50 in the assay on HT29 colon and in the assay with HL-60(TB) leukemia were 3.89 µM and 5.7 µM, respectively. Besides, the TGI came out at 35 µM with SR leukemia; 2.69 µM in the assay on OVCAR-4 ovarian; 10.9 µM with MCF7 breast; 12.9 µM with SF-295 CNS; 32 µM in the assay with M14 melanoma; 17.9 µM with A549 NSCLC. Moreover, the TGI with HT29 colon worked out at 15.3 µM; in the assay with HL-60(TB) leukemia, 25.5 µM.
As to `O=C(O)C1CCCN1Cc1c[nH]c2ccccc12` (stereo unspecified), the TGI with SR leukemia, in the assay with OVCAR-4 ovarian, with MCF7 breast, in the assay with SF-295 CNS, in the assay on M14 melanoma and with A549 NSCLC was more than 100 µM throughout. Further, the TGI in the assay on HT29 colon and in the assay with HL-60(TB) leukemia was more than 100 µM each time.
On to `CCOC(=O)c1sc2ncn(Cc3cccc(Cl)c3)c(=O)c2c1C`, for which the GI50 was 3.33 µM with SR leukemia; 16.2 µM in the assay with OVCAR-4 ovarian; 15.8 µM in the assay on MCF7 breast; 12 µM with SF-295 CNS; 15.4 µM in the assay on M14 melanoma; 16.4 µM with A549 NSCLC. In addition, the figures for the GI50 in the assay with HT29 colon and with HL-60(TB) leukemia were 19.3 µM and 18 µM, respectively. Besides, the TGI is 12.7 µM in the assay with SR leukemia; 29.7 µM with OVCAR-4 ovarian; 29.2 µM with MCF7 breast; 24.4 µM in the assay on SF-295 CNS; 28.7 µM in the assay on M14 melanoma; 30 µM in the assay on A549 NSCLC. Besides, the TGI in the assay with HT29 colon was found to be 33.4 µM; in the assay on HL-60(TB) leukemia it was 31.9 µM.
As to `COC(=O)/C=C1\SC(=Nc2ccc(C(F)(F)F)cc2)N(CCc2c[nH]c3ccccc23)C1=O`, the GI50 in the assay on SR leukemia was 0.613 µM; in the assay with OVCAR-4 ovarian, 1.61 µM; with MCF7 breast, 1.16 µM; in the assay with SF-295 CNS, 1.57 µM; with M14 melanoma it was 1.46 µM; with A549 NSCLC, 2.01 µM. Moreover, the GI50 with HT29 colon was 1.86 µM; with HL-60(TB) leukemia, 1.23 µM. Moreover, the TGI with SR leukemia is 9.31 µM; in the assay with OVCAR-4 ovarian, 3.05 µM; with MCF7 breast, 4.53 µM; in the assay with SF-295 CNS, 2.95 µM; with M14 melanoma, 2.9 µM; with A549 NSCLC, 4.8 µM. For the same molecule, the figures for the TGI in the assay on HT29 colon and in the assay with HL-60(TB) leukemia were 4.56 µM and 3.98 µM, respectively.
Regarding `COc1ccc(-n2c(-c3ccc(NC(=O)CCCl)cc3)nnc2-c2cc(OC)c(OC)c(OC)c2)cc1`, the GI50 in the assay with SR leukemia was 3.12 µM; in the assay on OVCAR-4 ovarian it was 4.1 µM; with MCF7 breast it was 3.15 µM; with SF-295 CNS, 5.02 µM; in the assay with M14 melanoma, 4.27 µM; in the assay on A549 NSCLC, 3.89 µM. The GI50 was 3.03 µM with HT29 colon and 1.9 µM with HL-60(TB) leukemia. Also, the TGI is 12.7 µM in the assay with SR leukemia; more than 14.3 µM in the assay on OVCAR-4 ovarian; more than 14.3 µM in the assay with MCF7 breast; more than 14.3 µM in the assay on SF-295 CNS; more than 14.3 µM with M14 melanoma; 11.2 µM in the assay on A549 NSCLC. Further, the results for the TGI in the assay with HT29 colon and with HL-60(TB) leukemia were 11.2 µM and 6.02 µM, respectively.
As for `O=C(Oc1cccc(Nc2ncnc3ccccc23)c1)c1ccccc1Cl`, the GI50 is 65.7 µM in the assay on SR leukemia; 48.9 µM with OVCAR-4 ovarian; 11.7 µM in the assay with MCF7 breast; 20 µM in the assay on SF-295 CNS; 39.7 µM in the assay with M14 melanoma; 25.9 µM in the assay on A549 NSCLC. The GI50 in the assay on HT29 colon is 27.4 µM; with HL-60(TB) leukemia, 79.4 µM. Further, the TGI in the assay on SR leukemia is more than 100 µM; with OVCAR-4 ovarian, more than 100 µM; in the assay on MCF7 breast, 37.1 µM; in the assay on SF-295 CNS it was 47.5 µM; in the assay with M14 melanoma, more than 100 µM; with A549 NSCLC it was more than 100 µM. Besides, the TGI with HT29 colon and in the assay with HL-60(TB) leukemia was more than 100 µM throughout.
On to `c1ccc(Oc2c3ccccc3nc3ccccc23)cc1`, for which the GI50 in the assay on SR leukemia was 2.97 µM; in the assay with OVCAR-4 ovarian, 4.33 µM; with MCF7 breast it was 2.48 µM; with SF-295 CNS, 5.03 µM; with M14 melanoma it was 3.4 µM; in the assay with A549 NSCLC, 4.62 µM. Moreover, the GI50 in the assay on HT29 colon was 0.48 µM; with HL-60(TB) leukemia, 0.541 µM. For the same molecule, the TGI is 54.3 µM with SR leukemia; 21.2 µM in the assay on OVCAR-4 ovarian; 17.5 µM in the assay on MCF7 breast; more than 100 µM in the assay with SF-295 CNS; 10.7 µM in the assay with M14 melanoma; 27 µM in the assay with A549 NSCLC. The TGI in the assay with HT29 colon worked out at 2.83 µM; with HL-60(TB) leukemia it was 5.79 µM.

These data come from PubChem BioAssay (NCI).
